Measured values taken from paper PMC10436550, “Subacute toxicity evaluations of LPM3480392 in rats, a full µ-opioid receptor biased agonist” (Frontiers in Pharmacology, 2023).

Columns and labels:
Sprague Dawley (SD) rats [1] = assay: Ophthalmic examination; format: in vivo, rat; conditions: 2.4 mg/kg/day; both genders; end of dosing phase and recovery phase
Description: The examination was conducted on rats in control and 2.4 mg/kg/day groups at the end of dosing phase (Day 27) and at the end of recovery phase (Recovery day 27). The mydriasis (eye instillation, 1-2 drops/eye) was conducted using Mydrin-P (compound tropicamide eye drops) before examination. Binocular indirect ophthalmoscope was used to examine conjunctiva, cornea, iris, lens, anterior chamber, posterior chamber and fundus.

rats = assay: Spontaneous withdrawal test in rats; format: in vivo, rat; conditions: iv 0.3 to 1.8 mg/kg/day for 30 consecutive days; data not shown
Description: However, we have conducted the spontaneous withdrawal test in rats in 2019 at WCFP (data not shown in this manuscript). The rats were intravenously injected with LPM3480392 injection from 0.3 to 1.8 mg/kg/day for 30 consecutive days. […] There were no apparent abnormalities in body weights of female rats in LPM3480392 injection groups during dosing and recovery phases. The effects of LPM3480392 on body weight in males or females in the spontaneous withdrawal test are similar to those in the subacute toxicity study in rats.

Sprague Dawley (SD) rats [2] = assay: Mortality and clinical observation, 4-week subacute toxicity study; format: in vivo, rat; conditions: for Mild to severe increased activity, starting day: dosing phase
Description: For all surviving animals, a morning and an afternoon observation every day were conducted for the moribundity and death. Daily observation was carried out once within 1 h after each dosing in dosing phase, and at least once daily in recovery phase, including mental status, food and water consumption, hair, discharge, mortality and other toxic reactions. Detailed observation was performed once every week, including appearance, movement, mental status, gland secretions, skin and mucosa color, respiration, genitals, mortality and other toxic reactions.
The animals found dead were recorded for the observation or death time, and weighed followed by a complete postmortem examination to explore the cause of death. All required organs and tissue as listed in the Section 2.11 and other tissues with gross lesions were performed with histopathology examination. Animals found dead which could not be examined immediately were temporarily refrigerated.

µ-opioid receptor (MOR) = test system: µ-opioid receptor (MOR); parameters: method as in Yang et al., 2022; conditions: ref Yang et al., 2022, cited from earlier work
Sprague Dawley (SD) rats [3] = assay: Urinalysis, 4-week subacute toxicity study; format: in vivo, rat
Description: Urine samples were directly collected from the metabolic cage at the end of dosing phase (Day 26) and at the end of recovery phase (Recovery Day 28), respectively. Urinalysis parameters in Table 1 were evaluated using CLINITEK Atlas automatic urine analyzer (Germany).

[4] = 0.6 mg/kg/day, End of dosing phase, N 5
[5] = 0.6 mg/kg/day, End of recovery phase, N 5
[6] = 1.2 mg/kg/day, End of dosing phase, N 5
[7] = 1.2 mg/kg/day, End of recovery phase, N 5
[8] = 2.4 mg/kg/day, End of dosing phase, N 4
[9] = 2.4 mg/kg/day, End of dosing phase, N 5
[10] = 2.4 mg/kg/day, End of recovery phase, N 4
[11] = 2.4 mg/kg/day, End of recovery phase, N 5

Fc1ccc([C@]2(CCNCc3cccc(Cl)c3)CCO[C@]3(CCOC3)C2)nc1 [LPM3480392]
Ophthalmic examination findings (Sprague Dawley (SD) rats [1]): No abnormalities | Physical dependence after spontaneous withdrawal (rats): Physical dependence was induced | Withdrawal behaviours reversed to normal, Recovery day (rats): 6 | Mild to severe increased activity, starting day (Sprague Dawley (SD) rats [2]; 0.6 mg/kg/day): 7 | Mild to severe increased activity, starting day (Sprague Dawley (SD) rats [2]; 1.2 mg/kg/day): 4 | Increased muscle tone, incidence (Sprague Dawley (SD) rats [2]; 1.2 mg/kg/day, first 5 days of dosing phase): 33/38 | Deep respiration or rale, incidence (Sprague Dawley (SD) rats [2]; 2.4 mg/kg/day): 4/36 | Hunchback, incidence (Sprague Dawley (SD) rats [2]; 2.4 mg/kg/day): 1/36 | Piloerection, incidence (Sprague Dawley (SD) rats [2]; 2.4 mg/kg/day): 1/36 | Found dead (1 male and 1 female) (Sprague Dawley (SD) rats [2]; 2.4 mg/kg/day, Days 3 and 15): 2/30 | Decreased activity, incidence (Sprague Dawley (SD) rats [2]; 2.4 mg/kg/day, a few time points during dosing phase): 26/36 | Mild to severe increased activity, starting day (Sprague Dawley (SD) rats [2]; 2.4 mg/kg/day): 1 | Increased muscle tone, incidence (Sprague Dawley (SD) rats [2]; 2.4 mg/kg/day, mostly complete dosing phase): 36/36 | Emax, β-arrestin-2 recruitment activity (µ-opioid receptor (MOR)): 1.6% | EC50 (µ-opioid receptor (MOR); read-out: EC50, β-arrestin-2 recruitment activity): > 30 µM | KET (mmol/L) of males: animals with grade 1.5 (Sprague Dawley (SD) rats [3]; [4]): 3 | KET (mmol/L) of males: animals with grade 3.9 (Sprague Dawley (SD) rats [3]; [4]): 1 | KET (mmol/L) of males: animals with grade — (Sprague Dawley (SD) rats [3]; [4]): 1 | NIT of males: animals with grade + (Sprague Dawley (SD) rats [3]; [4]): 2 | NIT of males: animals with grade — (Sprague Dawley (SD) rats [3]; [4]): 3 | pH of females: animals with grade 7.0 (Sprague Dawley (SD) rats [3]; [4]): 1 | pH of females: animals with grade 7.5 (Sprague Dawley (SD) rats [3]; [4]): 3 | pH of females: animals with grade 8.5 (Sprague Dawley (SD) rats [3]; [4]): 1 | KET (mmol/L) of males: animals with grade 1.5 (Sprague Dawley (SD) rats [3]; [5]): 2 | KET (mmol/L) of males: animals with grade 3.9 (Sprague Dawley (SD) rats [3]; [5]): 1 | KET (mmol/L) of males: animals with grade — (Sprague Dawley (SD) rats [3]; [5]): 2 | NIT of males: animals with grade + (Sprague Dawley (SD) rats [3]; [5]): 3 | NIT of males: animals with grade — (Sprague Dawley (SD) rats [3]; [5]): 2 | pH of females: animals with grade 6.0 (Sprague Dawley (SD) rats [3]; [5]): 0 | pH of females: animals with grade 6.5 (Sprague Dawley (SD) rats [3]; [5]): 0 | pH of females: animals with grade 7.0 (Sprague Dawley (SD) rats [3]; [5]): 0 | pH of females: animals with grade 7.5 (Sprague Dawley (SD) rats [3]; [5]): 4 | pH of females: animals with grade 8.0 (Sprague Dawley (SD) rats [3]; [5]): 1 | KET (mmol/L) of males: animals with grade 1.5 (Sprague Dawley (SD) rats [3]; [6]): 3 | KET (mmol/L) of males: animals with grade 3.9 (Sprague Dawley (SD) rats [3]; [6]): 1 | KET (mmol/L) of males: animals with grade — (Sprague Dawley (SD) rats [3]; [6]): 1 | NIT of males: animals with grade + (Sprague Dawley (SD) rats [3]; [6]): 1 | NIT of males: animals with grade — (Sprague Dawley (SD) rats [3]; [6]): 4 | pH of females: animals with grade 7.0 (Sprague Dawley (SD) rats [3]; [6]): 1 | pH of females: animals with grade 7.5 (Sprague Dawley (SD) rats [3]; [6]): 3 | pH of females: animals with grade 8.5 (Sprague Dawley (SD) rats [3]; [6]): 1 | KET (mmol/L) of males: animals with grade 1.5 (Sprague Dawley (SD) rats [3]; [7]): 2 | KET (mmol/L) of males: animals with grade 3.9 (Sprague Dawley (SD) rats [3]; [7]): 1 | KET (mmol/L) of males: animals with grade — (Sprague Dawley (SD) rats [3]; [7]): 2 | NIT of males: animals with grade + (Sprague Dawley (SD) rats [3]; [7]): 1 | NIT of males: animals with grade — (Sprague Dawley (SD) rats [3]; [7]): 4 | pH of females: animals with grade 6.0 (Sprague Dawley (SD) rats [3]; [7]): 1 | pH of females: animals with grade 6.5 (Sprague Dawley (SD) rats [3]; [7]): 0 | pH of females: animals with grade 7.0 (Sprague Dawley (SD) rats [3]; [7]): 2 | pH of females: animals with grade 7.5 (Sprague Dawley (SD) rats [3]; [7]): 1 | pH of females: animals with grade 8.0 (Sprague Dawley (SD) rats [3]; [7]): 1 | pH of females: animals with grade 7.0 (Sprague Dawley (SD) rats [3]; [8]): 0 | pH of females: animals with grade 7.5 (Sprague Dawley (SD) rats [3]; [8]): 1 | pH of females: animals with grade 8.5 (Sprague Dawley (SD) rats [3]; [8]): 3 | KET (mmol/L) of males: animals with grade 1.5 (Sprague Dawley (SD) rats [3]; [9]): 0 | KET (mmol/L) of males: animals with grade 3.9 (Sprague Dawley (SD) rats [3]; [9]): 0 | KET (mmol/L) of males: animals with grade — (Sprague Dawley (SD) rats [3]; [9]): 5 | NIT of males: animals with grade + (Sprague Dawley (SD) rats [3]; [9]): 1 | NIT of males: animals with grade — (Sprague Dawley (SD) rats [3]; [9]): 4 | pH of females: animals with grade 6.0 (Sprague Dawley (SD) rats [3]; [10]): 0 | pH of females: animals with grade 6.5 (Sprague Dawley (SD) rats [3]; [10]): 2 | pH of females: animals with grade 7.0 (Sprague Dawley (SD) rats [3]; [10]): 2 | pH of females: animals with grade 7.5 (Sprague Dawley (SD) rats [3]; [10]): 0 | pH of females: animals with grade 8.0 (Sprague Dawley (SD) rats [3]; [10]): 0 | KET (mmol/L) of males: animals with grade 1.5 (Sprague Dawley (SD) rats [3]; [11]): 1 | KET (mmol/L) of males: animals with grade 3.9 (Sprague Dawley (SD) rats [3]; [11]): 0 | KET (mmol/L) of males: animals with grade — (Sprague Dawley (SD) rats [3]; [11]): 4 | NIT of males: animals with grade + (Sprague Dawley (SD) rats [3]; [11]): 0 | NIT of males: animals with grade — (Sprague Dawley (SD) rats [3]; [11]): 5
